According to US8802597B2, “Herbicidal pyrimidines” (E I du Pont de Nemours and Company, priority 2003, dated 2014):

Columns and labels:
Assay in all cases: Test G pre/postemergence
Assay type in all cases: in vivo
[1] = tested on: dallisgrass (Paspalum dilatatum)
From the text: (§1) Seeds or nutlets of plant species selected from bermudagrass (Cynodon dactylon), Surinam grass (Brachiaria decumbens), large crabgrass (Digitaria sanguinalis), green foxtail (Setaria viridis), goosegrass (Eleusine indica), johnsongrass (Sorghum halepense), kochia (Kochia scoparia), pitted morningglory (Ipomoea lacunosa), purple nutsedge (Cyperus rotundus), common ragweed (Ambrosia elatior), black mustard (Brassica nigra), guineagrass (Panicum maximum), dallisgrass (Paspalum dilatatum), barnyardgrass (Echinochloa crus-galli), southern sandbur (Cenchrus echinatus), common sowthistle (Sonchus oleraceous), prickly sida (Sida spinosa), Italian ryegrass (Lolium multiflorum), common purslane (Portulaca oleracea), broadleaf signalgrass (Brachiaria platyphylla), common groundsel (Senecio vulgaris), common chickweed (Stellaria media), tropical spiderwort (Commelina benghalensis), annual bluegrass (Poa annua), downy bromegrass (Bromus tectorum), itchgrass (Rottboellia cochinchinensis), quackgrass (Elytrigia repens), Canada horseweed (Conyza canadensis), field bindweed (Convolvulus arvensis), spanishneedles (Bidens bipinnata), common mallow (Malva sylvestris), and Russian thistle (Salsola kali) were planted and treated preemergence with test chemicals formulated in a non-phytotoxic solvent mixture which included a surfactant.
(§2) At the same time, plants selected from these weed species were treated with postemergence applications of some of the test chemicals formulated in the same manner. Plants ranged in height from 2 to 18 cm (1- to 4-leaf stage) for postemergence treatments. Treated plants and controls were maintained in a greenhouse for 12 to 21 days, after which time all species were compared to controls and visually evaluated.
(§3) Plant response ratings, summarized in Table G, are based on a scale of 0 to 100 where 0 is no effect and 100 is complete control. A dash (-) response means no test result.

[2] = tested on: black mustard (Brassica nigra)
From the text: as §1, §2, §3

[3] = tested on: johnsongrass (Sorghum halepense)
From the text: as §1, §2, §3

[4] = tested on: common mallow (Malva sylvestris)
From the text: as §1, §2, §3

[5] = tested on: broadleaf signalgrass (Brachiaria platyphylla)
From the text: as §1, §2, §3

[6] = tested on: tropical spiderwort (Commelina benghalensis)
From the text: as §1, §2, §3

[7] = tested on: annual bluegrass (Poa annua)
From the text: as §1, §2, §3

[8] = tested on: Surinam grass (Brachiaria decumbens)
From the text: as §1, §2, §3

[9] = tested on: goosegrass (Eleusine indica)
From the text: as §1, §2, §3

[10] = tested on: field bindweed (Convolvulus arvensis)
From the text: as §1, §2, §3

[11] = tested on: pitted morningglory (Ipomoea lacunosa)
From the text: as §1, §2, §3

[12] = tested on: bermudagrass (Cynodon dactylon)
From the text: as §1, §2, §3

[13] = tested on: Italian ryegrass (Lolium multiflorum)
From the text: as §1, §2, §3

[14] = tested on: green foxtail (Setaria viridis)
From the text: as §1, §2, §3

[15] = Postemergence, 250 g ai/ha, scale 0 to 100
[16] = Postemergence, 500 g ai/ha, scale 0 to 100
[17] = Postemergence, 62 g ai/ha, scale 0 to 100
[18] = Postemergence, 125 g ai/ha, scale 0 to 100
[19] = Postemergence, 375 g ai/ha, scale 0 to 100
[20] = Preemergence, 62 g ai/ha, scale 0-100
[21] = Preemergence, 125 g ai/ha, scale 0-100
[22] = Preemergence, 250 g ai/ha, scale 0-100
[23] = Preemergence, 500 g ai/ha, scale 0 to 100
[24] = Preemergence, 375 g ai/ha, scale 0 to 100
[25] = Preemergence, 500 g ai/ha, scale 0-100

CCOC(=O)c1nc(C2CC2)nc(N)c1Br [Compound 1, ethyl 6-amino-5-bromo-2-cyclopropyl-4-pyrimidinecarboxylate]
Plant response rating, Dallisgrass [1, 15]: 30
Plant response rating, Dallisgrass [1, 16]: 30
Plant response rating, Dallisgrass [1, 17]: 10
Plant response rating, Dallisgrass [1, 18]: 20
Plant response rating, Dallisgrass [1, 19]: 30
Plant response rating, Dallisgrass [1, 20]: 0
Plant response rating, Dallisgrass [1, 21]: 10
Plant response rating, Dallisgrass [1, 22]: 50
Plant response rating, Dallisgrass [1, 23]: 95
Plant response rating, Dallisgrass [1, 24]: 95
Plant response rating, Black Mustard [2, 15]: 75
Plant response rating, Black Mustard [2, 16]: 75
Plant response rating, Black Mustard [2, 17]: 60
Plant response rating, Black Mustard [2, 18]: 75
Plant response rating, Black Mustard [2, 19]: 75
Plant response rating, Black Mustard [2, 20]: 30
Plant response rating, Black Mustard [2, 21]: 80
Plant response rating, Black Mustard [2, 22]: 85
Plant response rating, Black Mustard [2, 23]: 100
Plant response rating, Black Mustard [2, 24]: 100
Plant response rating, Johnsongrass [3, 15]: 95
Plant response rating, Johnsongrass [3, 16]: 95
Plant response rating, Johnsongrass [3, 17]: 70
Plant response rating, Johnsongrass [3, 18]: 70
Plant response rating, Johnsongrass [3, 19]: 95
Plant response rating, Johnsongrass [3, 20]: 20
Plant response rating, Johnsongrass [3, 21]: 40
Plant response rating, Johnsongrass [3, 22]: 60
Plant response rating, Johnsongrass [3, 25]: 75
Plant response rating, Johnsongrass [3, 23]: 75
Plant response rating, Mallow [4, 15]: 70
Plant response rating, Mallow [4, 16]: 95
Plant response rating, Mallow [4, 17]: 50
Plant response rating, Mallow [4, 18]: 60
Plant response rating, Mallow [4, 19]: 95
Plant response rating, Mallow [4, 20]: 50
Plant response rating, Mallow [4, 21]: 80
Plant response rating, Mallow [4, 22]: 95
Plant response rating, Mallow [4, 25]: 95
Plant response rating, Mallow [4, 23]: 95
Plant response rating, Signalgrass [5, 15]: 75
Plant response rating, Signalgrass [5, 16]: 85
Plant response rating, Signalgrass [5, 17]: 20
Plant response rating, Signalgrass [5, 18]: 60
Plant response rating, Signalgrass [5, 19]: 75
Plant response rating, Signalgrass [5, 20]: 10
Plant response rating, Signalgrass [5, 21]: 70
Plant response rating, Signalgrass [5, 22]: 75
Plant response rating, Signalgrass [5, 25]: 75
Plant response rating, Signalgrass [5, 23]: 95
Plant response rating, Spiderwort [6, 15]: 95
Plant response rating, Spiderwort [6, 16]: 95
Plant response rating, Spiderwort [6, 17]: 95
Plant response rating, Spiderwort [6, 18]: 95
Plant response rating, Spiderwort [6, 19]: 95
Plant response rating, Spiderwort [6, 20]: 70
Plant response rating, Spiderwort [6, 21]: 100
Plant response rating, Spiderwort [6, 22]: 100
Plant response rating, Spiderwort [6, 25]: 100
Plant response rating, Spiderwort [6, 23]: 100
Plant response rating, Bluegrass [7, 15]: 40
Plant response rating, Bluegrass [7, 16]: 50
Plant response rating, Bluegrass [7, 17]: 20
Plant response rating, Bluegrass [7, 18]: 30
Plant response rating, Bluegrass [7, 19]: 50
Plant response rating, Bluegrass [7, 20]: 10
Plant response rating, Bluegrass [7, 21]: 30
Plant response rating, Bluegrass [7, 22]: 85
Plant response rating, Bluegrass [7, 23]: 85
Plant response rating, Surinam Grass [8, 15]: 85
Plant response rating, Surinam Grass [8, 16]: 90
Plant response rating, Surinam Grass [8, 17]: 30
Plant response rating, Surinam Grass [8, 18]: 60
Plant response rating, Surinam Grass [8, 19]: 90
Plant response rating, Surinam Grass [8, 20]: 95
Plant response rating, Surinam Grass [8, 21]: 95
Plant response rating, Surinam Grass [8, 22]: 95
Plant response rating, Surinam Grass [8, 25]: 95
Plant response rating, Surinam Grass [8, 23]: 100
Plant response rating, Goosegrass [9, 15]: 60
Plant response rating, Goosegrass [9, 16]: 60
Plant response rating, Goosegrass [9, 17]: 20
Plant response rating, Goosegrass [9, 18]: 60
Plant response rating, Goosegrass [9, 19]: 60
Plant response rating, Goosegrass [9, 20]: 0
Plant response rating, Goosegrass [9, 22]: 50
Plant response rating, Goosegrass [9, 23]: 50
Plant response rating, Goosegrass [9, 24]: 50
Plant response rating, Bindweed, Field [10, 15]: 95
Plant response rating, Bindweed, Field [10, 16]: 95
Plant response rating, Bindweed, Field [10, 17]: 90
Plant response rating, Bindweed, Field [10, 18]: 95
Plant response rating, Bindweed, Field [10, 19]: 95
Plant response rating, Bindweed, Field [10, 20]: 95
Plant response rating, Bindweed, Field [10, 21]: 100
Plant response rating, Bindweed, Field [10, 22]: 100
Plant response rating, Bindweed, Field [10, 23]: 100
Plant response rating, Bindweed, Field [10, 24]: 100
Plant response rating, Morningglory [11, 15]: 100
Plant response rating, Morningglory [11, 16]: 100
Plant response rating, Morningglory [11, 17]: 100
Plant response rating, Morningglory [11, 18]: 100
Plant response rating, Morningglory [11, 19]: 100
Plant response rating, Morningglory [11, 20]: 95
Plant response rating, Morningglory [11, 21]: 100
Plant response rating, Morningglory [11, 22]: 100
Plant response rating, Morningglory [11, 25]: 100
Plant response rating, Morningglory [11, 23]: 100
Plant response rating, Bermudagrass [12, 15]: 40
Plant response rating, Bermudagrass [12, 16]: 50
Plant response rating, Bermudagrass [12, 17]: 25
Plant response rating, Bermudagrass [12, 18]: 25
Plant response rating, Bermudagrass [12, 19]: 40
Plant response rating, Bermudagrass [12, 20]: 10
Plant response rating, Bermudagrass [12, 21]: 20
Plant response rating, Bermudagrass [12, 22]: 30
Plant response rating, Bermudagrass [12, 23]: 70
Plant response rating, Bermudagrass [12, 24]: 70
Plant response rating, Ryegrass, Italian [13, 15]: 40
Plant response rating, Ryegrass, Italian [13, 16]: 40
Plant response rating, Ryegrass, Italian [13, 17]: 0
Plant response rating, Ryegrass, Italian [13, 18]: 10
Plant response rating, Ryegrass, Italian [13, 19]: 40
Plant response rating, Ryegrass, Italian [13, 20]: 0
Plant response rating, Ryegrass, Italian [13, 21]: 10
Plant response rating, Ryegrass, Italian [13, 22]: 30
Plant response rating, Ryegrass, Italian [13, 25]: 95
Plant response rating, Ryegrass, Italian [13, 23]: 95
Plant response rating, Foxtail, Green [14, 15]: 30
Plant response rating, Foxtail, Green [14, 16]: 60
Plant response rating, Foxtail, Green [14, 17]: 10
Plant response rating, Foxtail, Green [14, 18]: 20
Plant response rating, Foxtail, Green [14, 19]: 50
Plant response rating, Foxtail, Green [14, 20]: 10
Plant response rating, Foxtail, Green [14, 21]: 10
Plant response rating, Foxtail, Green [14, 22]: 50
Plant response rating, Foxtail, Green [14, 23]: 90
Plant response rating, Foxtail, Green [14, 24]: 90
